# Experimental data reported in US8916567B2, “Certain crystalline hydrates, pharmaceutical compositions thereof and methods for preparation and use thereof” (Universal Technology Alliance, Inc., priority 2009, dated 2014).
# How the values were obtained:
# [1] = Solubility in different solvents according to Chinese Pharmacopeia (2005 edition); type: physicochemical; settings: for Result: at the given solute:solvent ratio
# Method: The solubility of the (S)—[N-3-(3′-fluoro-4′-(4″-phenylpiperazinyl))phenyl-2-oxo-5-oxazolelidinyl]methylacetamide hydrates was tested with different solvents, and the test results are shown in Tables 15-19. The solubility was measured according to Chinese Pharmacopeia (2005 edition).
# Staphylococcus aureus = experiment: Minimum inhibitory concentration (MIC) in vitro, agar dilution method, quality control strain; type: cell-based; settings: strain S. AT C C25923 (Table 7 No. 1); hydrate
# Outline: (§1)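 MIC50, MIC90 and MIC range were compiled from per-strain MICs obtained by the agar dilution method recommended by CLSI/NCCLS, using clinically isolated strains from Sichuan and Beijing.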
# S. epidermidis MSSE = experiment: Minimum inhibitory concentration (MIC) in vitro, agar dilution method; type: cell-based; settings: hydrate
# Outline: as §1
# E. feacalis = experiment: as above; type: cell-based; settings: hydrate
# Outline: as §1
# [2] = tested on: Staphylococcus aureus MSSA; experiment: as above; type: cell-based; settings: hydrate
# Outline: as §1
# S. epidermidis MRSE = experiment: as above; type: cell-based; settings: hydrate
# Outline: as §1
# E. feacium = experiment: as above; type: cell-based; settings: hydrate
# Outline: as §1
# [3] = tested on: Staphylococcus aureus MRSA; experiment: as above; type: cell-based; settings: hydrate
# Outline: as §1
# [4] = S. ep MSSE (10 strains), clinically isolated
# [5] = E. feacalis (5 strains), clinically isolated
# [6] = S. MSSA (11 strains), clinically isolated
# [7] = S. ep MRSE (10 strains), clinically isolated
# [8] = E. feacium (5 strains), clinically isolated
# [9] = S. MRSA (10 strains), clinically isolated
smiles,measurement,setting,value
"CC(=O)NC[C@H]1CN(c2ccc(N3CCN(c4ccccc4)CC3)c(F)c2)C(=O)O1 [3/4 hydrate, (S)—[N-3-(3′-fluoro-4′-(4″-phenylpiperazinyl))phenyl-2-oxo-5-oxazolidinyl]methyl acetamide 3/4 hydrate]",Solubility compared with the anhydride,[1]; different solvents,sometimes more soluble than the anhydride
same,Result,[1]; solvent 0.1N Hydrochloric acid,Dissolved
same,Result,[1]; solvent 0.1N Sodium hydroxide,Insoluble
same,Result,[1]; solvent Acetonitrile,Dissolved
same,Result,[1]; solvent Ethanol,Dissolved
same,Result,[1]; solvent Methanol,Dissolved
same,Result,"[1]; solvent Water, listed as ¾ hydrate, hydrate",Dissolved
same,MIC,Staphylococcus aureus,1 µg/mL
same,MIC50,S. epidermidis MSSE; [4],0.5 µg/mL
same,MIC90,S. epidermidis MSSE; [4],1 µg/mL
same,MICrange,S. epidermidis MSSE; [4],0.5 to 1 µg/mL
same,MIC,S. epidermidis MSSE; strain S. ep MSSE87 (Table 7 No. 23),0.5 µg/mL
same,MIC,S. epidermidis MSSE; strain S. ep MSSE88 (Table 8 No. 5),1 µg/mL
same,MIC,S. epidermidis MSSE; strain S. ep MSSE113 (Table 7 No. 24),0.5 µg/mL
same,MIC,S. epidermidis MSSE; strain S. ep MSSE116 (Table 7 No. 25),0.5 µg/mL
same,MIC,S. epidermidis MSSE; strain S. ep MSSE118 (Table 8 No. 2),0.5 µg/mL
same,MIC,S. epidermidis MSSE; strain S. ep MSSE119 (Table 7 No. 27),1 µg/mL
same,MIC,S. epidermidis MSSE; strain S. ep MSSE137 (Table 8 No. 4),1 µg/mL
same,MIC,S. epidermidis MSSE; strain S. ep MSSE140 (Table 8 No. 3),0.5 µg/mL
same,MIC,S. epidermidis MSSE; strain S. ep MSSE142 (Table 7 No. 26),1 µg/mL
same,MIC,S. epidermidis MSSE; strain S. ep MSSE153 (Table 8 No. 1),1 µg/mL
same,MIC50,E. feacalis; [5],2 µg/mL
same,MIC90,E. feacalis; [5],4 µg/mL
same,MICrange,E. feacalis; [5],1 to 4 µg/mL
same,MIC,E. feacalis; strain Efa 54 (Table 8 No. 20),2 µg/mL
same,MIC,E. feacalis; strain Efa 116 (Table 8 No. 16),2 µg/mL
same,MIC,E. feacalis; strain Efa 907 (Table 8 No. 19),1 µg/mL
same,MIC,E. feacalis; strain Efa 3006 (Table 8 No. 18),2 µg/mL
same,MIC,E. feacalis; strain Efa 33748 (Table 8 No. 17),4 µg/mL
same,MIC50,[2]; [6],1 µg/mL
same,MIC90,[2]; [6],1 µg/mL
same,MICrange,[2]; [6],0.5 to 1 µg/mL
same,MIC,[2]; strain S. MSSA 123 (Table 7 No. 3),1 µg/mL
same,MIC,[2]; strain S. MSSA 187 (Table 7 No. 7),1 µg/mL
same,MIC,[2]; strain S. MSSA 195 (Table 7 No. 6),1 µg/mL
same,MIC,[2]; strain S. MSSA 195 (Table 7 No. 12),1 µg/mL
same,MIC,[2]; strain S. MSSA 201 (Table 7 No. 11),0.5 µg/mL
same,MIC,[2]; strain S. MSSA 232 (Table 7 No. 2),1 µg/mL
same,MIC,[2]; strain S. MSSA 275 (Table 7 No. 10),0.5 µg/mL
same,MIC,[2]; strain S. MSSA 466 (Table 7 No. 8),0.5 µg/mL
same,MIC,[2]; strain S. MSSA 519 (Table 7 No. 9),1 µg/mL
same,MIC,[2]; strain S. MSSA 520 (Table 7 No. 4),1 µg/mL
same,MIC,[2]; strain S. MSSA 580 (Table 7 No. 5),1 µg/mL
same,MIC50,S. epidermidis MRSE; [7],1 µg/mL
same,MIC90,S. epidermidis MRSE; [7],1 µg/mL
same,MICrange,S. epidermidis MRSE; [7],1 µg/mL
same,MIC,S. epidermidis MRSE; strain S. ep MRSE4 (Table 8 No. 9),1 µg/mL
same,MIC,S. epidermidis MRSE; strain S. ep MRSE20 (Table 8 No. 6),1 µg/mL
same,MIC,S. epidermidis MRSE; strain S. ep MRSE87 (Table 8 No. 13),1 µg/mL
same,MIC,S. epidermidis MRSE; strain S. ep MRSE90 (Table 8 No. 10),1 µg/mL
same,MIC,S. epidermidis MRSE; strain S. ep MRSE101 (Table 8 No. 7),1 µg/mL
same,MIC,S. epidermidis MRSE; strain S. ep MRSE105 (Table 8 No. 11),1 µg/mL
same,MIC,S. epidermidis MRSE; strain S. ep MRSE140 (Table 8 No. 14),1 µg/mL
same,MIC,S. epidermidis MRSE; strain S. ep MRSE142 (Table 8 No. 12),1 µg/mL
same,MIC,S. epidermidis MRSE; strain S. ep MRSE210 (Table 8 No. 15),1 µg/mL
same,MIC,S. epidermidis MRSE; strain S. ep MRSE211 (Table 8 No. 8),1 µg/mL
same,MIC50,E. feacium; [8],2 µg/mL
same,MIC90,E. feacium; [8],4 µg/mL
same,MICrange,E. feacium; [8],1 to 4 µg/mL
same,MIC,E. feacium; strain Efm 98 (Table 8 No. 21),2 µg/mL
same,MIC,E. feacium; strain Efm 171 (Table 8 No. 25),2 µg/mL
same,MIC,E. feacium; strain Efm 197 (Table 8 No. 22),1 µg/mL
same,MIC,E. feacium; strain Efm N3 (Table 8 No. 23),4 µg/mL
same,MIC,E. feacium; strain Efm N4 (Table 8 No. 24),4 µg/mL
same,MIC50,[3]; [9],1 µg/mL
same,MIC90,[3]; [9],1 µg/mL
same,MICrange,[3]; [9],0.5 to 1 µg/mL
same,MIC,[3]; strain S. MRSA 29 (Table 7 No. 15),0.5 µg/mL
same,MIC,[3]; strain S. MRSA 101 (Table 7 No. 14),1 µg/mL
same,MIC,[3]; strain S. MRSA 201 (Table 7 No. 13),1 µg/mL
same,MIC,[3]; strain S. MRSA B27 (Table 7 No. 21),0.5 µg/mL
same,MIC,[3]; strain S. MRSA B105 (Table 7 No. 17),1 µg/mL
same,MIC,[3]; strain S. MRSA B143 (Table 7 No. 19),1 µg/mL
same,MIC,[3]; strain S. MRSA B151 (Table 7 No. 20),1 µg/mL
same,MIC,[3]; strain S. MRSA B164 (Table 7 No. 16),1 µg/mL
same,MIC,[3]; strain S. MRSA B199 (Table 7 No. 22),0.5 µg/mL
same,MIC,[3]; strain S. MRSA B617 (Table 7 No. 18),1 µg/mL
